Laboratory results as given in ChEMBL document CHEMBL4024747, “Design, Synthesis, and Biological Activities of Vibsanin B Derivatives: A New Class of HSP90 C-Terminal Inhibitors” (J Med Chem, 2017).

Columns and labels:
Assay type in all cases: functional, cell-based
[1] = tested on: A549; assay: Antiproliferative activity against human A549 cells assessed as reduction in cell viability after 48 hrs by MTT assay; settings: A549, 48 h
[2] = tested on: SW480; assay: Antiproliferative activity against human SW480 cells assessed as reduction in cell viability after 48 hrs by MTT assay; settings: SW480, 48 h
[3] = tested on: HL-60; assay: Antiproliferative activity against human HL60 cells assessed as reduction in cell viability after 48 hrs by MTT assay; settings: HL-60, 48 h
[4] = tested on: SMMC-7721; assay: Antiproliferative activity against human SMMC7721 cells assessed as reduction in cell viability after 48 hrs by MTT assay; settings: SMMC-7721, 48 h
[5] = tested on: MCF7; assay: Antiproliferative activity against human MCF7 cells assessed as reduction in cell viability after 48 hrs by MTT assay; settings: MCF7, 48 h

Row | SMILES | IC50 [1] | IC50 [2] | IC50 [3] | IC50 [4] | IC50 [5]
1 | CC(C)=CCC[C@]1(C)/C=C/[C@@H](OC(=O)C=C(C)C)[C@](C)(O)/C=C/C(=O)/C(CN(C(C)C)C(C)C)=C\C1 | 0.65 µM | 0.75 µM | 0.74 µM | 0.34 µM | 0.78 µM
2 | CC(C)=CCC[C@]1(C)/C=C/[C@@H](OC(=O)C=C(C)C)[C@](C)(O)/C=C/C(=O)/C(C(=O)N(C(C)C)C(C)C)=C\C1 | 13.5 µM | 16 µM | 12.7 µM | 17.2 µM | 17.2 µM
3 | CC(C)=CCC[C@]1(C)/C=C/[C@@H](OC(=O)C=C(C)C)[C@](C)(O)/C=C/C(=O)/C(CN2CCOCC2)=C\C1 | 0.66 µM | 0.77 µM | 1.11 µM | 1.14 µM | 0.52 µM
4 | CC(C)=CCC[C@](C)(/C=C/[C@@H](OC(=O)C=C(C)C)[C@](C)(O)/C=C/C(=O)/C=C/N(C)C)CC=O | 11.2 µM | 10.3 µM | 4.69 µM | 10.2 µM | 12.2 µM
5 | CCN(CC)C/C1=C/C[C@](C)(CCC=C(C)C)/C=C/[C@@H](OC(=O)C=C(C)C)[C@](C)(O)/C=C/C1=O | 0.13 µM | 0.27 µM | 0.14 µM | 0.57 µM | 0.13 µM
6 | CC(C)=CCC[C@]1(C)/C=C/[C@@H](OC(=O)C=C(C)C)[C@](C)(O)/C=C/C(=O)/C(C(=O)O)=C\C1 | > 10 µM | > 10 µM | > 10 µM | > 10 µM | 16.1 µM
7 | CC(C)=CCC[C@]1(C)/C=C/[C@@H](OC(=O)C=C(C)C)[C@](C)(O)/C=C/[C@H](O)/C(CO)=C\C1 | > 40 µM | > 40 µM | > 40 µM | > 40 µM | 33 µM
8 | COC/C1=C/C[C@](C)(CCC=C(C)C)/C=C/[C@@H](OC(=O)C=C(C)C)[C@](C)(OC)/C=C/C1=O | 4.18 µM | 14.6 µM | 4.05 µM | 9.38 µM | 16.5 µM
9 | CO[C@H]1/C=C/[C@@](C)(O)[C@H](OC(=O)C=C(C)C)/C=C/[C@@](C)(CCC=C(C)C)C/C=C\1CO | 19.2 µM | 16.6 µM | 14.8 µM | 38.1 µM | 18.5 µM
10 | CO/N=C/C1=C/C[C@](C)(CCC=C(C)C)/C=C/[C@@H](OC(=O)C=C(C)C)[C@](C)(O)/C=C/C1=O | 3.47 µM | 2.63 µM | 4.76 µM | 3.47 µM | 2.51 µM
11 | CC(C)=CCC[C@]1(C)/C=C/[C@@H](OC(=O)C=C(C)C)[C@](C)(O)/C=C/[C@@H](O)/C(CO)=C\C1 | 18.7 µM | 19.7 µM | 15.9 µM | 16.4 µM | 17.4 µM
12 | COCO[C@@H]1/C=C/[C@@](C)(CCC=C(C)C)C/C=C(/CO)C(=O)/C=C/[C@@]1(C)O | > 40 µM | > 40 µM | > 40 µM | > 40 µM | > 40 µM
13 | COCOC/C1=C/C[C@](C)(CCC=C(C)C)/C=C/[C@@H](OC(=O)C=C(C)C)[C@](C)(O)/C=C/C1=O | 2.98 µM | 3.71 µM | 2.84 µM | 3.25 µM | 3.12 µM
14 | CC[Si](CC)(CC)OC/C1=C/C[C@](C)(CCC=C(C)C)/C=C/[C@@H](OC(=O)C=C(C)C)[C@](C)(O)/C=C/C1=O | 3.1 µM | 2.69 µM | 2.81 µM | 3.46 µM | 3.15 µM
15 | CC(C)=CCC[C@]1(C)/C=C/[C@@H](OC(=O)C=C(C)C)[C@](C)(O)/C=C/C(=O)/C(C(=O)N2CCCC2)=C\C1 | 13 µM | 15.1 µM | 12.3 µM | 14.9 µM | 17.2 µM
16 | CC(C)=CCC[C@]1(C)/C=C/[C@@H](OC(=O)C=C(C)C)[C@](C)(O)/C=C/C(=O)/C(COC(=O)c2ccc([N+](=O)[O-])cc2)=C\C1 | 1.31 µM | 0.57 µM | 0.83 µM | 2.56 µM | 0.67 µM
17 | CC(=O)OC/C1=C/C[C@](C)(CCC=C(C)C)/C=C/[C@@H](OC(=O)C=C(C)C)[C@](C)(OC(C)=O)/C=C/C1=O | 15.1 µM | 3.52 µM | 3.48 µM | 4.13 µM | 3.99 µM
18 | CCN(CC)C(=O)/C1=C/C[C@](C)(CCC=C(C)C)/C=C/[C@@H](OC(=O)C=C(C)C)[C@](C)(O)/C=C/C1=O | 11.3 µM | 11.7 µM | 9.08 µM | 13.8 µM | 12.1 µM
19 | CC(C)=CCC[C@]1(C)/C=C/[C@@H](OC(=O)C=C(C)C)[C@](C)(O)/C=C/C(=O)/C(Cn2cc(CO)nn2)=C\C1 | 3.47 µM | 2.87 µM | 3.2 µM | 3.56 µM | 2.93 µM
